From US11331290B2, “Niclosamide for the treatment of cancer metastasis” (Max-Delbrück-Centrum für Molekulare Medizin in der …, priority 2011, dated 2022)

Tests used:
S100A4 mRNA = S100A4 mRNA in spleen tumor of xenograft mice (qRT-PCR); format: in vivo; details: for S100A4 mRNA level in spleen tumor, mean % of control mice / S100A4 mRNA level in spleen tumor, mean difference control vs niclosamide: day 24
Procedure: All experiments were performed in accordance with the UKCCCR guidelines and approved by the responsible local authorities (State Office of Health and Social Affairs, Berlin, Germany). HCT116-CMVp-LUC cells (3×10^6 cells per mouse, resuspended in 50 μL PBS) were intrasplenically transplanted into 6-week-old female nonobese diabetic-severe combined immunodeficiency (NOD-SCID) mice. Mice were randomly assigned to 3 groups and reatment of mice started 24 hours after cell transplantation. Mice of the control group (n=9) were treated with daily doses of solvent. Mice of the second group (n=9) were daily treated intraperitoneally with 20 mg per kg niclosamide. Mice of the third group (n=9) were treated intraperitoneally with two doses of 15 mg per kg niclosamide per day. The experimental endpoint was reached when mice appeared moribund and/or the spleen tumor was palpable. This was the case with the majority of control mice on day 24. For long-term in vivo experiments mice randomly assigned to 3 groups. Mice of the control group (n=6) were treated intraperitoneally with daily doses of solvent. Mice of the second group (n=6) were daily treated intraperitoneally with 20 mg per kg niclosamide. Mice of the third group (n=6) were daily treated intraperitoneally for 24 days with 20 mg per kg niclosamide and for the residual days with solvent. Mice were killed by cervical dislocation when tumor reached the maximum in accordance with the local authorities.
Spleen (as the transplantation site) and liver (as a metastasis target organ) were removed. The amount of S100A4 mRNA in the tumor was determined by Trizol RNA isolation of tumor cryosections and quantitative real-time RT-PCR. The level of metastasis was evaluated by scoring. For each liver, a score was calculated as the sum of the volumes of the individual metastases. For each metastasis the formula [width2]×length was applied.
(A) In vivo luminescence imaging of metastasis under niclosamide treatment. HCT116-CMVp-LUC cells stably expressing firefly luciferase (LUC) were intrasplenically transplanted into mice (per group n=4) followed by daily intraperitoneal treatment with 20 mg per kg niclosamide. For luminescence imaging, mice were anesthetized at the indicated days and received intraperitoneally D-luciferin. Exposure time for lateral and ventral imaging was 20 seconds per picture. In situ imaging and imaging of isolated organs was performed for 1 second per picture exposure time. Signal intensity of grayscale images (256 scale) were color coded (from low to high signal intensity: blue, green, yellow, red, white) and overlayed with bright field picture. (B) S100A4 mRNA level in spleen tumor of niclosamide-treated xenograft mice. Spleens from mice (per group n=9) were dissected on day 24. Tumor tissue was cryosected for RNA isolation. S100A4 mRNA level was measured by qRT-PCR and expressed as percentage of control mice. Differences were analyzed by two-sided one-way analysis of variance and Bonferroni post hoc multiple comparison test. Bars represent mean±SD. (C) Liver metastases size in niclosamide-treated xenograft mice. Liver was dissected from xenograft mice (per group n=9) intraperitoneally treated twice per day with 15 mg per kg or daily with 20 mg per kg niclosamide for 24 days. Metastasis was quantified by scoring. Data is given as mean±SD.
(A) S100A4 expression in vitro after discontinued niclosamide treatment. HCT116 cells were treated daily with 1 μM niclosamide for three consecutive days, medium was removed on day 4, and S100A4 expression was analyzed 24, 48, and 72 hours after niclosamide removal. S100A4 expression was analyzed by qRT-PCR and immunoblot. (B) Cell migration after discontinued niclosamide treatment. Cell migration rates of HCT116 cells treated as in (A) were determined by Boyden chamber assay. Differences in control vs. treated cells were analyzed by Student's t test. (C) Anchorage-dependent cell proliferation after discontinued niclosamide treatment. […]

HCT116 cells = assay: Cytotoxicity (cell viability) of niclosamide; format: cell-based; details: Homo sapiens, HCT-116, 24 h, 95% CI 1.87 to 2.92 μM
Procedure: To determine an applicable niclosamide concentration, the cytotoxicity of niclosamide on HCT116 cells was analyzed. […] No change in S100A4 expression could be detected with concentrations below 1 μM niclosamide.
All calculations and statistical analyses were performed with GraphPad Prism version 4.01. Student t test was used for comparison of only two groups. One-way analysis of variance (ANOVA) was applied for comparing the control group with several treated groups followed by Bonferroni post hoc multiple comparisons. […] Kaplan-Meier analysis was used to plot overall survival and differences in curves were analyzed by Logrank test. […]
(A) Determination of the cytotoxicity of niclosamide on HCT116 cells. Cells were treated with increasing concentrations of niclosamide for 24 hours and cell viability was measured. […] S100A4 expression was determined by quantitative reverse-transcription-polymerase chain reaction (qRT-PCR) and immunoblot. […] HCT116 cells were treated with a single dose of 1 μM niclosamide for 24 hours and S100A4 expression was analyzed by qRT-PCR and immunoblot at indicated time points. […] HCT116 cells were treated daily with 1 μM niclosamide and S100A4 expression was analyzed by qRT-PCR and immunoblot. […]

[1] = 20 mg per kg daily intraperitoneally
[2] = 2×15 mg per kg per day intraperitoneally

## O=C(Nc1ccc([N+](=O)[O-])cc1Cl)c1cc(Cl)ccc1O [niclosamide, 2′,5-dichloro-4′-nitrosalicylanilide]
S100A4 mRNA; [1]
  S100A4 mRNA level in spleen tumor, mean % of control mice: 67.2%
  S100A4 mRNA level in spleen tumor, mean difference control vs niclosamide: 32.9%
S100A4 mRNA; [2]
  S100A4 mRNA level in spleen tumor, mean % of control mice: 58.4%
  S100A4 mRNA level in spleen tumor, mean difference control vs niclosamide: 41.7%
S100A4 mRNA; continuous treatment
  S100A4 mRNA level in spleen tumor, mean difference control vs treatment: 27%
S100A4 mRNA; continuous treatment (20 mg per kg i.p. daily)
  S100A4 mRNA level in spleen tumor, mean % of control animals: 73%
S100A4 mRNA; discontinuous treatment
  S100A4 mRNA level in spleen tumor, mean difference control vs treatment: 40.0%
S100A4 mRNA; discontinuous treatment (20 mg per kg i.p. for 24 days, then solvent)
  S100A4 mRNA level in spleen tumor, mean % of control animals: 60%
HCT116 cells
  EC50: 2.2 µM
